Source: US20050202515A1, “Functional method for generating or screening for ligands which modulate steroid hormone receptors” (Wyeth, priority 2004, published 2005)
Each block holds one compound with its values, some of them ahead of it. Ends that are not written are not given here.

How the values were obtained:
PI3-K = PI3-K activity in p85 immunoprecipitates from MCF-7 cells; format: cell-based
Procedure: Transfections and cell lysates preparation. […] Cell debris was removed by centrifugation.
Immunoprecipitation and kinase assays.
For PI3-K reaction, p85 was immunoprecipitated from cell lysates as described above. Kinase activity in the immunoprecipitate was detected using PI3-Kinase ELISA kit from Echelon Biosciences according to the manufacture's instructions. Briefly, reaction was run in 50 μl volume by adding 5 μl of 10× reaction buffer and 10 μl of PI(4,5)P2 substrate solution (10 μM) to the p85 immunoprecipitate. After the PI3-K reactions was complete, reaction products are first mixed and incubated with a PI(3,4,5)P3 detecting antibody, then added to the PI(3,4,5)P3-coated microplate for competitive binding. A peroxidase-linked secondary detection reagent and colorirnetric detection was used to detect PI(3,4,5)P3 detecting antibody binding to the plate. The colorimetric signal was inversely proportional to the amount of PI(3,4,5)P3 produced by PI 3-K activity.

GST-VDR-LBD = target: T1, GST-VDR-LBD (Homo sapiens, UniProt P11473); test: ELISA-based VDR-MNAR interaction analysis; format: binding; conditions: GST-VDR-LBD preincubated with vehicle or 1 μM 1,25(OH)2D3; peptide 50 μM
T1 construct: made in house; host or cells: E. coli BL-21
T1 sequence (P11473 110-427): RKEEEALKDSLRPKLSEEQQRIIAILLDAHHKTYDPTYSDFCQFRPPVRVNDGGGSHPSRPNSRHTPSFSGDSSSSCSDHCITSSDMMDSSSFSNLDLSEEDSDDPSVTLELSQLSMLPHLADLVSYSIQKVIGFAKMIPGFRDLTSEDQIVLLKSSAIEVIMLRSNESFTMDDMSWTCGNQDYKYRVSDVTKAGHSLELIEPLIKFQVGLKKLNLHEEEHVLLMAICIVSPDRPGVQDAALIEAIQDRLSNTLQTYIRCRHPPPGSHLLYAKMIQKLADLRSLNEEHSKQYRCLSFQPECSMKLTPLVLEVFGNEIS
Procedure: ELISA-based VDR-MNAR interaction analysis. A rapid, nonisotopic ELISA-type method was used for characterization of VDR-MNAR interactions. Biotinylated peptides corresponding to different MNAR's LXXLL motifs (designated 1-9, sequentially from the most N-terminal motif) were synthesized and immobilized on a Reacti-Bind™ NeutrAvidin™-coated microplate (Pierce Biotechnology, Rockford, Ill.). The microplate was washed twice with binding buffer (50 mM Tris-HCL, pH 8.0, 150 mM NaCl, 1 mM DTT, 1 mM EDTA, 0.01% NP-40, and 0.01% BSA). Peptides were diluted in 100 μl binding buffer to a final concentration of 50 μM and incubated with the Reacti-Bind™ NeutrAvidin™ coated microplate for 1 hour at room temperature, washed 4 times with the binding buffer. GST-VDR-LBD, preincubated with vehicle or 1 μM 1,25(OH)2D3, was allowed to interact with the immobilized peptide corresponding to one of each of the MNAR LXXLL motifs for 2 hours at room temperature. The plate was washed 4 times with binding buffer and incubated with anti-GST antibodies fused to HRP (Sigma, St. Louis, Mo.) for 1 h in binding buffer and washed 4 more times. SuperSignal® ELISA Pico Chemiluminescent Substrate (Pierce Biotechnology, Rockford, Ill.) was used to detect antigen/antibody complex, signal was read using a Wallac Victor2 1420 Multilabel Counter (PerkinElmer Lifesciences, Boston, Mass.).

Akt [1] = test: Western blotting analysis of phosphorylated Akt in MCF-7 cells; format: cell-based
Procedure: Transfections and cell lysates preparation. […] Cell debris was removed by centrifugation. […] Equal amount of protein from cell lysates was run on SDS-PAGE. Separated proteins were transferred to nitrocellulose membrane and levels of Akt and p-Akt were determined by western blotting analysis. Akt antibody was from Cell Signaling (anti-Akt cat#9272, anti-p-Akt cat# 9271).

Akt [2] = test: Akt kinase activity in immunoprecipitate (GSK-3 substrate) from MCF-7 cells; format: cell-based; conditions: MNAR overexpression, estradiol for 20 min
Procedure: Transfections and cell lysates preparation. […] Cell debris was removed by centrifugation. […] Briefly, […] of GSK-3 fusion protein was added to the Akt-immunoprecipitate as a substrate. Kinase reaction was run in a reaction buffer supplied by the manufacturer. The level of p-GSK-3 produced in the kinase reaction was analyzed by western blotting analysis.

Erk 1 and 2 = test: Western blotting analysis of Erk 1 and 2 phosphorylation in UMR-106 cells; format: cell-based, rat
Procedure: Western blotting analysis. […] After 48 h cells were treated with 10 nM 1,25(OH)2D3 for the indicated time. […] Cell debris were removed by centrifugation and equal amount of protein was run on SDS-PAGE. Separated proteins were transferred to nitrocellulose membrane and levels of MNAR, ERK, and p-ERK were determined by western blotting analysis.

osteocalcin = test: Quantitative PCR (TaqMan) analysis of osteocalcin in UMR-106 cells; format: cell-based, rat; conditions: 100 nM, 24 h
Procedure: (§1) Quantitative PCR (TaqMan) analysis. […] Following transfection cells were cultured in media supplemented with 2% charcoal stripped FBS. 16 hours after the transfection cells were treated with 100 nM 1,25(OH)2 Vit.D3 for 24 or 48 hours. Cells were lysed and total RNA was isolated using RNeasy Kit (Quiagen). Quantitative PCR (TaqMan) was performed to determine osteocalcin levels in UMR-106 cells and alkaline phosphatase levels in ROS 17/2.8 cells.

alkaline phosphatase = test: Quantitative PCR (TaqMan) analysis of alkaline phosphatase in ROS 17/2.8 cells; format: cell-based, rat; conditions: overexpression of MNAR, 100 nM, 48 h
Procedure: as §1

[3] = target: T2, GST-VDR ligand binding domain fusion protein (Homo sapiens, UniProt P11473); test: GST pull-down interaction analysis; conditions: 35S-radiolabeled full length MNAR; absence or presence of 100 nM 1,25(OH)2 Vit. D3
T2 construct: made in house; host or cells: E. coli BL-21 (GST-VDR-LBD); Promega TNT Quick Coupled Transcription/Translation System (MNAR)
Procedure: GST pull-down interaction analysis. A GST fusion to the ligand binding domain of VDR, amino acids 110-427, termed GST-VDR-LBD, was expressed in BL-21 cells and bound to glutathione-Sepharose 4B (Amersham Biosciences, Piscataway, NJ). Wild type MNAR was transcribed/translated and ^35S radiolabeled using Promega TNT Quick Coupled Transcription/Translation System (Madison, Wis.) and incubated for 1 hour at room temperature with GST-VDR-LBD fusion protein bound to glutathione-Sepharose 4B in the absence or presence of 100 nM 1,25(OH)2 Vit. D3 in binding buffer (50 mM Tris pH 8.0, 150 mM NaCl, 1 mM DTT, 1 mM PMSF, 1 mM EDTA, 0.05% NP-40, 1× Protease cocktail). Beads were then washed 4 times with the binding buffer and bound proteins were eluted by addition of SDS buffer and analyzed by SDS-PAGE and autoradiography.

T2 sequence (Q8IZL8 whole entry E896G/T1069P partner, one chain of several, the tested form may be a part): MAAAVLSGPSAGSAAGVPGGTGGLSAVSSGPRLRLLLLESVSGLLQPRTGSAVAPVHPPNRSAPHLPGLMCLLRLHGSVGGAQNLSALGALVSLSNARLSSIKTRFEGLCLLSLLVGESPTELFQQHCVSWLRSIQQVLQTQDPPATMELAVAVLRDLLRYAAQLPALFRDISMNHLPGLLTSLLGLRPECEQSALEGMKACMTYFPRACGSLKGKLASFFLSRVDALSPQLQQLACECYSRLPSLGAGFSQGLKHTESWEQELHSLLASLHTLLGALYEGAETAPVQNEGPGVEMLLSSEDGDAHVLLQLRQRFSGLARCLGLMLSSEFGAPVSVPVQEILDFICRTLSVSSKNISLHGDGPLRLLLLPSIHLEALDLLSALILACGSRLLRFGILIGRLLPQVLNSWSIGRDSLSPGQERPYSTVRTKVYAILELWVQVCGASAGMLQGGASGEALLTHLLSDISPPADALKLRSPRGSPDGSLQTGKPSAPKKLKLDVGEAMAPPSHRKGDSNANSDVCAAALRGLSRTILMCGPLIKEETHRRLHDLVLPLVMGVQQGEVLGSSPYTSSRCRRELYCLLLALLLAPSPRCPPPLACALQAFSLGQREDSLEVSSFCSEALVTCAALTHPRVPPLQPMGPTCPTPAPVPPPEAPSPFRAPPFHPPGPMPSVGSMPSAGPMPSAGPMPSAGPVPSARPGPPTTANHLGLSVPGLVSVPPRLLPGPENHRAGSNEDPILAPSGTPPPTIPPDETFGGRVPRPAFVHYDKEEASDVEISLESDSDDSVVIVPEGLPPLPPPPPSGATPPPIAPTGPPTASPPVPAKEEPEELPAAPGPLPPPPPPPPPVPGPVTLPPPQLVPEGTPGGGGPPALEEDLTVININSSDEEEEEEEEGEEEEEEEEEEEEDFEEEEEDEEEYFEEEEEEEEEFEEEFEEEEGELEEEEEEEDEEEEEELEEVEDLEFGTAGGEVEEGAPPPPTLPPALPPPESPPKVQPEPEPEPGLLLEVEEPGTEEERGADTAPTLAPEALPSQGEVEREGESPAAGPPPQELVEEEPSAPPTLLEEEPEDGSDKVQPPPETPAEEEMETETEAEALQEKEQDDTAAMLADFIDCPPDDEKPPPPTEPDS

Compound: C[C@]12CC[C@@H]3c4ccc(O)cc4C[C@@H](CCCCCCCCC[S+]([O-])CCCC(F)(F)C(F)(F)F)[C@H]3[C@@H]1CC[C@@H]2O (stereo partly shown) [ICI 182 780]
effect on estradiol activation of PI3-K activity (PI3-K; MCF-7 cells treated with 10 nM estradiol for 20 min): blocked

VDR ligand binding domain interaction with immobilized MNAR LXXLL peptide (GST-VDR-LBD): ligand-dependently interacted
Compound: MNAR LXXLL motif #5: biotinylated peptide corresponding to the fifth LXXLL motif of MNAR, counted from the most N-terminal motif (LPGLLTSLL; also: biotinylated, site not given here)

Compound: C[C@]12CC[C@@H]3c4ccc(O)cc4CC[C@H]3[C@@H]1CC[C@@H]2O [estradiol, 17β-estradiol]
estrogen-dependant activation of PI3-K (PI3-K; MCF-7 cells, MNAR overexpression, 10 nM estradiol for 20 min): increased
PI3-kinase activity (PI3-K; MCF-7 cells, 10 nM for 20 min): stimulation of the PI3-kinase activity
phospho-Akt level (Akt [1]; MCF-7 cells transfected with MNAR-expressing plasmid vs empty vector, 10 nM estradiol for 20 min): strong increase in phospho-Akt level
level of phospho-Akt (Akt [1]; MCF-7 cells, 10 nM for 20 min): increased the level of phospho-Akt
estradiol induced Akt activation (GSK-3 phosphorylation) (Akt [2]): stimulates

Compound: C=C1/C(=C\C=C2/CCC[C@]3(C)[C@@H]([C@H](C)CCCC(C)(C)O)CC[C@@H]23)C[C@@H](O)C[C@@H]1O [1,25(OH)2 Vit D3, 1,25 dihydroxy vitamin D3]
Erk phosphorylation (Erk 1 and 2; MNAR overexpression, 10 nM): dramatic increase in Erk phosphorylation
levels of phosphorylated Erk 1 and 2 (Erk 1 and 2; absence of MNAR (control vector), 10 nM for 10 or 20 min): augmentation of the levels of phosphorylated Erk 1 and 2
1,25(OH)2 Vit D3-stimulated levels of osteocalcin (osteocalcin; MNAR overexpression): strong potentiation
level of osteocalcin expression (osteocalcin; control plasmid): did not affect
induction of AP expression level (alkaline phosphatase): strongly enhanced

Compound: MNAR: modulator of nongenomic activity of estrogen receptor, scaffold protein, GenBank AF547989
MNAR interaction with VDR-LBD [3]: directly interacts with VDR-LBD in a ligand-dependent manner
